Reference: publication PMC4726147, “Structural Insights into the Quaternary Catalytic Mechanism of Hexameric Human Quinolinate Phosphoribosyltransferase, a Key Enzyme in de novo NAD Biosynthesis” (Scientific Reports, 2016)

Tests used:
Format in all cases: binding
[1] = molecular target: T1, Quinolinate phosphoribosyltransferase (HsQPRT) (Homo sapiens, UniProt Q15274); assay: ITC
T1 construct: gene QPRT; full-length HsQPRT (residues 1–297), hexamer

[2] = molecular target: T1, Quinolinate phosphoribosyltransferase (HsQPRT); assay: co-crystal structure ([…] Å)
[3] = molecular target: T2, Quinolinate phosphoribosyltransferase (HsQPRT) NΔ9 mutant (Homo sapiens, UniProt Q15274, NΔ9); assay: ITC
T2 construct: gene QPRT; NΔ9, N-terminal truncated (helix α1 removed), dimer
T2 sequence (Q15274 10-297, stated change not applied): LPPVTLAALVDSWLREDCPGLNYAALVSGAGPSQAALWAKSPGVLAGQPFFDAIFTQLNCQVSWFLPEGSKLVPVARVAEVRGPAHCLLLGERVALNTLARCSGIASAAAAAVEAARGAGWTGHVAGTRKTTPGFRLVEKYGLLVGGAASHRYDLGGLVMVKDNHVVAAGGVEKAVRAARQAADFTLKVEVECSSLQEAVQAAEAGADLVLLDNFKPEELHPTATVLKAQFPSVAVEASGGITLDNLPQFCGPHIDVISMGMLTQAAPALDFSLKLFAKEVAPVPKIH

[4] = molecular target: T1, Quinolinate phosphoribosyltransferase (HsQPRT); assay: ITC and crystal structure ([…] Å)

T1 sequence (Q15274 whole entry, the tested form may be a part): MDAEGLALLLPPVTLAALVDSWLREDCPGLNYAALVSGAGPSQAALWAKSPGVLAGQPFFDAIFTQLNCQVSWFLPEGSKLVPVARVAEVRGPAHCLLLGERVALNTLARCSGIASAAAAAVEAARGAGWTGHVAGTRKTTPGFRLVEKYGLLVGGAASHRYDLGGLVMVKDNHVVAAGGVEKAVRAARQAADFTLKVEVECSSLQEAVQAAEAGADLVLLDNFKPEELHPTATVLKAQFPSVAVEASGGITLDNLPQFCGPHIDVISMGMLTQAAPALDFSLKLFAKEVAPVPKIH

## O=C(O)c1ccccc1C(=O)O [phthalic acid]
[1]
  Kd: 5.2 ± 0.2 µM

## O=C(O)c1ccc[n+]([C@@H]2O[C@H](COP(=O)([O-])O)[C@@H](O)[C@H]2O)c1 [NAMN, nicotinic acid mononucleotide]
[2]
  co-crystal structure (2.6 Å): clear density for two loops (loops L and O) and the substrate molecules (QA and NAMN) bound to the protein

## O=C(O)c1cccnc1C(=O)O [QA, quinolinic acid]
[3]
  Kd: 401 ± 56 µM
[4]
  Kd: 4.8 ± 0.4 µM
